For assay [1], the system named is sodium channel. In words: [14C]guanidine flux: veratrine-evoked uptake of [14C]guanidine into rat forebrain synaptosomes (primary sodium channel assay). Type of assay: biochemical. As to conditions: 30° for 2½ min. The procedure:
The screening strategy is designed to select compounds with appropriate sodium channel blocking activity and low side effect liability. To this end all compounds are processed through the primary sodium channel assay (veratrine-evoked uptake of [^14C]guanidine into rat forebrain synaptosomes) and IC50 values computed from generated concentration-effect curves.
Experiments were performed using forebrain (whole brain less cerebellum/medulla) from Male Wistar rats weighing 175-250 g. All efforts were made to reduce the number of animals used and all experiments were carried out in accordance with the UK Animals (Scientific Procedures) Act, 1986 and the European Community Council Directive of 24 Nov. 1986 (86/609/EEC). Following killing of animals by stunning and decapitation, the forebrain (whole brain less cerebellum/medulla) was rapidly dissected and transferred to a weighed tube containing ice-cold 0.25M sucrose.
Synaptosomes (heavy and light mitochondrial fraction containing synaptosomes) were prepared by transferring the forebrain (of known wet weight) to a glass Potter vessel to which 9 volumes ice-cold 0.25M sucrose had been added and homogenising, using a teflon pestle, by 8 ‘up and down strokes’ of a Braun Potter S motor driven homogeniser set to 900 rpm. The resulting homogenate was centrifuged at 1036×g at 4° for 10 min and the supernatant collected. The remaining pellet was resuspended, as above, in fresh ice-cold 0.25M sucrose and the centrifugation step repeated. The supernatant fractions were pooled and centrifuged at 40,000×g (average) at 4° for 15 min and the resulting pellet resuspended in the appropriate assay buffer at a concentration of 20-25 mg wet weight per ml appropriate assay buffer.
Both assays were carried out using 14 ml polypropylene test tubes to which a range of concentrations of the compounds under test were added.
The [^14C] guanidinine flux assay was measured using the method of Pauwels P J et al (1986) but carried out@30° for 2½ min.
(§1) Data are presented as mean±sem of number of experiments indicated in brackets.

The target in assay [2] is T1, DiHydroFolate Reductase (DHFR) (Rattus norvegicus, UniProt Q920D2).
T1 construct: from tissue; host or cells: rat liver homogenate supernatant
T1 sequence (Q920D2 1-187): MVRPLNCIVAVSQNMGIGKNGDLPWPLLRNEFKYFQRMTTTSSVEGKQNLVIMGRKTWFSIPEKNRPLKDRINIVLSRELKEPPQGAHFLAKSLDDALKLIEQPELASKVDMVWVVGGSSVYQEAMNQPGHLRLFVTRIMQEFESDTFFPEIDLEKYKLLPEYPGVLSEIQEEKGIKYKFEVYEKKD
The experiment in a line: Inhibition of binding of [3H]methotrexate to rat liver homogenate supernatant. The conditions noted are these: for inhibition at 125 µM: read-out: [3H]mtx binding (% inhibition @ 125 μM). The procedure:
All steps were carried out at 4° (or on ice). Freshly dissected rat liver was dissected into 0.25M ice-cold Sucrose and subsequently homogenised (U-turrax) in 50 mM pH 6.0 phosphate buffer (10 ml/g tissue) containing 15 mM Dithiothreitol. The resulting homogenate was centrifuged@47,500×g for 20 min and supernatant (filtered through cotton wool to remove fatty lumps) stored @ −80° before use (Rothenberg et al).
Inhibition of the binding of [^3H]methotrexate to rat liver homogenate supernatant fractions were carried out essentially as described by Arons et al, 1975.
as §1

Where a name gives a salt, the structure may show the parent alone.

Broadly, the IC50 is the concentration at which inhibition is half-maximal. One may read the inhibition as the drop in the measured response relative to a control, in per cent. In assay [1], `Nc1nnc(-c2cccc(-c3nnc(N)nc3N)c2)c(N)n1` [CEN-186] returned an IC50 above 2000 µM. Also, the inhibition at 125 µM in assay [2] was determined as 83%.

On to `Cn1nc(-c2cc(Br)c(Br)o2)c(N)nc1=N` [CEN-135, 5(3)-Amino-6-[2-(4,5-dibromofuryl)]-2,3(2,5)-dihydro-3(5)-imino-2-methyl-1,2,4-triazine methanesulfonate], for which it took 43.7 µM to reach half-maximal inhibition in assay [1] (IC50). Also, in assay [2], the inhibition at 125 µM came to 89%.

With `Cn1nc(C(C)(c2ccccc2)c2ccccc2)c(N)nc1=N` [CEN-149, 5(3)-Amino-6-(1,1-diphenylethyl)-2,3(2,5)-dihydro-3(5)-imino-2-methyl-1,2,4-triazine methanesulfonate], in assay [1], half-maximal inhibition (IC50) required 23.4 µM. Moreover, in assay [2], the inhibition at 125 µM is 4%.

In the case of `Cn1cc(-c2cccc(Cl)c2Cl)c(N)nc1=N` [CEN-42, 4(2)-Amino-5-(2,3-dichlorophenyl)-2,4(2,5)-dihydro-2(4)-imino-1-methyl pyrimidine], 617 µM corresponded to half-maximal inhibition in assay [1] (listed as 42) (IC50). In addition, the “[3H]mtx binding (% inhibition @ 125 μM)” value in assay [2] (listed as 42, 125 µM) was 32%.

Turning to `Nc1nnc(-c2cc(C(F)(F)F)cc(C(F)(F)F)c2)c(N)n1` [CEN-175, 3,5-Diamino-6-[3,5 (bis-trifluoromethyl)phenyl]-1,2,4-triazine], the concentration for half-maximal inhibition (IC50) in assay [1] (listed as 175) is above 2000 µM. In assay [2] (listed as 175, 125 µM), the “[3H]mtx binding (% inhibition @ 125 μM)” value is recorded as −4%.

With `Cn1nc2c3ccccc3c3ccccc3c2nc1=N` [CEN-136], the concentration for half-maximal inhibition (IC50) in assay [1] came out at 229 µM. For the same compound, the inhibition at 125 µM in assay [2] was 27%.

In assay [1], `Cn1nc(-c2cccs2)c(N)nc1=N` [CEN-61, 5(3)-Amino-6-(2-thienyl)-2,3(2,5)-dihydro-3(5)-imino-2-methyl-1,2,4-triazine methanesulfonate] displayed an IC50 of 676 µM. Besides, in assay [2], the inhibition at 125 µM was determined as 87%.

In assay [1], `Nc1nnc(-c2ccc(F)c(Oc3ccccc3)c2)c(N)n1` [CEN-184, 3,5-Diamino-6-(4-fluoro-3-phenoxylphenyl)-1,2,4-triazine tosylate] registered a half-inhibitory concentration (IC50) of 34 µM. In assay [2], the inhibition at 125 µM was 104%.

For the compound `Cn1cc(-c2cccc(Cl)c2Cl)c(N)nc1=N` [CEN-43, 4(2)-Amino-5-(2,3-dichlorophenyl)-2,4(2,5)-dihydro-2(4)-imino-1-methylpyrimidine], in assay [1] (listed as 43), inhibition was half-maximal at 631 µM (IC50). The “[3H]mtx binding (% inhibition @ 125 μM)” value in assay [2] (listed as 43, 125 µM) is 20%.

As for `Nc1nnc(-c2cccc(Cl)n2)c(N)n1` [CEN-166, 3,5-Diamino-6-[2-(6-chloropyidyl)]-1,2,4-triazine], the IC50 in assay [1] turned out to be 1180 µM. Besides, the inhibition at 125 µM in assay [2] turned out to be 88%.

As to `CCn1nc(-c2cccc(C(F)(F)F)c2Cl)c(N)nc1=N` [CEN-178, 5(3)-Amino-6-(2-chloro-3-trifluoromethyphenyl)-2,3(2,5)-dihydro-3(5)-imino-2-ethyl-1,2,4-triazine methanesulphonate], the IC50 in assay [1] is 28 µM. Besides, in assay [2], the inhibition at 125 µM came to 27%.

In turn, `Nc1nnc(-c2nc(Cl)ccc2Cl)c(N)n1` [CEN-188, 3,5-Diamino-6-[2-(3,6-dichloropyidyl)]-1,2,4-triazine] came in with an IC50 in assay [1] of 2570 µM. The inhibition at 125 µM in assay [2] worked out at 76%.

As to `Nc1nnc(-c2cnc(Cl)c(Cl)c2)c(N)n1` [CEN-168, 3,5-Diamino-6-[3-(5,6-dichloropyidyl)]-1,2,4-triazine], half-maximal inhibition in assay [1] (IC50) was put at 1000 µM. Moreover, the inhibition at 125 µM in assay [2] turned out to be 95%.

In assay [1], `Nc1nnc(-c2ccc(Cl)nc2)c(N)n1` [CEN-191, 3,5-Diamino-6-[3-(6-chloro-pyridyl)]-1,2,4-triazine] had an IC50 of 1950 µM. For the same compound, in assay [2], the inhibition at 125 µM came out at 31%.

For the compound `Nc1nnc(-c2cccc(C(F)(F)F)c2Cl)c(N)n1` [CEN-176, 3,5-Diamino-6-(2-chloro-3-trifluoromethylphenyl)-1,2,4-triazine], in assay [1], half-maximal inhibition (IC50) required 309 µM. For the same compound, the inhibition at 125 µM in assay [2] is 55%.

In assay [1], `Nc1nnc(-c2cc3ccccc3oc2=O)c(N)n1` [CEN-133] had an IC50 above 2000 µM. For the same compound, the inhibition at 125 µM in assay [2] came to 17%.

In assay [1], `CC(C)c1cc(C(C)C)c(-c2nnc(N)nc2N)c(C(C)C)c1` [CEN-180, 3,5-Diamino-6-(2,4,6-triisopropylphenyl)-1,2,4-triazine tosylate] registered a concentration for half-maximal inhibition (IC50) above 2000 µM. Also, in assay [2], the inhibition at 125 µM is -2%.

`Cn1nc(C2(c3ccc(Cl)cc3)CCCC2)c(N)nc1=N` [CEN-150, 5(3)-Amino-6-{1-[1-(4-chlorophenyl)]cyclopentyl}-2,3(2,5)-dihydro-3(5)-imino-2-methyl-1,2,4-triazine methanesulfonate] came in with an IC50 in assay [1] of 16.2 µM. The inhibition at 125 µM in assay [2] stood at 27%.

Regarding `CCn1nc(-c2cc(OC)c(OC)c(OC)c2)c(N)nc1=N` [CEN-119, 5(3)-Amino-6-(3,4,5-trimethoxyphenyl)-2,3(2,5)-dihydro-3(5)-imino-2-ethyl-1,2,4-triazine methanesulfonate], the half-inhibitory concentration (IC50) in assay [1] came to 1950 µM. Moreover, the inhibition at 125 µM in assay [2] was determined as 52%.

For the compound `Cn1nc(-c2ccccc2OC(F)F)c(N)nc1=N` [CEN-146, 5(3)-Amino-6-(2-difluoromethoxyphenyl)-2,3(2,5)-dihydro-3(5)-imino-2-methyl-1,2,4-triazine methanesulfonate], in assay [1], the IC50 was determined as 871 µM. In assay [2], the inhibition at 125 µM was 3%.

In the case of `Cn1nc(-c2ccc(Oc3ccccc3)cc2)c(N)nc1=N` [CEN-102, 5(3)-Amino-6-(4-phenoxyphenyl)-2,3(2,5)-dihydro-3(5)-imino-2-methyl-1,2,4-triazine methanesulfonate], the IC50 in assay [1] worked out at 58.9 µM. Moreover, in assay [2], the inhibition at 125 µM came out at 25%.

Compound `COc1cc(-c2nn(C)c(=N)nc2N)cc(OC)c1OC` [CEN-101, 5(3)-Amino-6-(3,4,5-trimethoxyphenyl)-2,3(2,5)-dihydro-3(5)-imino-2-methyl-1,2,4-triazine methanesulfonate] registered an IC50 in assay [1] above 1000 µM. For the same compound, the inhibition at 125 µM in assay [2] was determined as 65%.

`CC(C)OCCn1nc(-c2cccc(Cl)c2Cl)c(N)nc1=N` [CEN-91, 5(3)-Amino-6-(2,3-dichlorophenyl)-2,3(2,5)-dihydro-3(5)-imino-2-(2-isopropoxy)ethyl-1,2,4-triazine]: the IC50 in assay [1] is 372 µM. In assay [2], the inhibition at 125 µM was found to be 94%.

On to `CCn1nc(-c2cccc(-c3ccccc3)c2)c(N)nc1=N` [CEN-162, 5(3)-Amino-6-(3-biphenyl)-2,3(2,5)-dihydro-3(5)-imino-2-ethyl-1,2,4-triazine methanesulfonate], for which the IC50 in assay [1] is 12 µM. For the same compound, the inhibition at 125 µM in assay [2] came out at 57%.

`Nc1nnc(-c2cc(F)c(Cl)nc2Cl)c(N)n1` [CEN-190, 3,5-Diamino-6-[3-(2,6-dichloro-5-fluoropyidyl)]-1,2,4-triazine]: the concentration for half-maximal inhibition (IC50) in assay [1] is 813 µM. Also, in assay [2], the inhibition at 125 µM was 6%.

Take `Nc1nnc(-c2ccc(Oc3ccc(-c4nnc(N)nc4N)cc3)cc2)c(N)n1` [CEN-111, Bis-[3,5-Diamino-6-(4-ARYL)-1,2,4-triazine]]: half-maximal inhibition in assay [1] (IC50) was put at 912 µM. Also, the inhibition at 125 µM in assay [2] was determined as 97%.

On to `Nc1nnc(-c2cccc3c2OC(F)(F)O3)c(N)n1` [CEN-70, 3,5-Diamino-6-[4-(2,2-difluorobenzodioxolo)]-1,2,4-triazine], for which the IC50 in assay [1] came to 1510 µM. The inhibition at 125 µM in assay [2] turned out to be 66%.

`COc1ccc2c(OC)cccc2c1-c1nnc(N)nc1N` [CEN-156] gave a concentration for half-maximal inhibition (IC50) in assay [1] (listed as 156) of 246 µM. In addition, the “[3H]mtx binding (% inhibition @ 125 μM)” value in assay [2] (listed as 156, 125 µM) stood at 32%.

In assay [1], `Cc1ccc(-c2nc(=N)n(C)nc2-c2ccc(C)cc2)cc1` [CEN-134, 3-Amino-2-methyl-5,6-bis(4-methylphenyl)-1,2,4-triazine mesylate] had a half-maximal inhibitory concentration (IC50) of 4.9 µM. In assay [2], the inhibition at 125 µM amounted to 6%.

With `Nc1nnc(-c2ccc3c(c2)OC(F)(F)O3)c(N)n1` [CEN-117, 3,5-Diamino-6-[5-(2,2-difluorobenzodioxolo)]-1,2,4-triazine], in assay [1], the IC50 is above 1000 µM. Further, the inhibition at 125 µM in assay [2] was found to be 79%.

For `Cn1nc(-c2sc(Cl)c(Cl)c2Cl)c(N)nc1=N` [CEN-194, 5(3)-Amino-6-{2-(3,4,5-trichloro)thienyl}-2,3(2,5)-dihydro-3(5)-imino-2-methyl-1,2,4-triazine methanesulfonate], the IC50 in assay [1] is 9 µM. The inhibition at 99 µM in assay [2] (read-out: [3H]mtx binding % inhibition (* 99 μM, *** uses fresh batch of supernatant), 99 μM, fresh batch of supernatant) is -6%.
